# Assay results taken from patent US5395947A, “Platinum(II) complex and processes for preparing the same” (Sunkyong Industries, Ltd., priority 1991, dated 1995).
# How the values were obtained:
# murine leukemia L1210 = assay: Antitumor activity test on murine leukemia L1210 in vivo; parameters: species or system male BDF1 mice; details: days 1, 5, 9
# Procedure: 2. Antitumor activity test on murine leukemia L1210 in vivo
# Murine leukemia L1210 cells were maintained in the peritoneal cavities of 6-week-old male DBA/2 mice by weekly transfer in accordance with the procedure described in cancer chemotherapy Reports, Part 3, 3(2), 7 (1972). Specifically, 1×10^6 leukemia cells were inoculated into the abdominal cavities of 6-week-old male BDF1 mice weighing 21±3 g on day 0. Each treatment group consisted of seven mice. The test compounds were dissolved or suspended in 0.5% carboxymethyl cellulose(CMC)solution (in water) and were administered intraperitoneally on days 1, 5, and 9 relative to the tumor inoculation.
# Thirty mice of 6-week-old male BDF1 weighing 21±3 g were used as the control group, which were injected with 0.5% CMC solution only in the same manner as above.
# Anti-tumor activities of the compounds were evaluated in terms of the T/C % values calculated from the mean survival time(T) of the compound-treated group over that(C) of the control group. [formula]
# ICR mice = assay: Acute toxicity test; format: in vivo; parameters: Lethality: unit not given here; details: for Lethality: 10080 min
# Procedure: 7-week-old ICR mice(male: 34±2 g; female: 31±2 g) were fed with solid food and water under the condition of 23±1° C. temperature and 65±5% humidity before the test.
# Each treatment group consisted of 6 mice. The test compounds were administered intraperitoneally.
# For 7 days after the administration, the appearance and the fate of the tested animals were recorded. The dead animals were subjected to autopsy and their visible pathological changes were observed. Their viscerals were stored in 10% formalin solution.
# [1] = tested on: murine leukemia L1210 cells; assay: Growth inhibition test on cultured murine leukemia L1210 cells; format: cell-based; details: 48 hours, 37° C., Trypan blue viability
# Procedure: 1. Growth inhibition test on cultured murine leukemia L1210 cells
# Murine leukemia L1210 cells(1×10^5) were treated with various concentrations of the compounds prepared in the above examples in RPMI 1640 medium supplemented with 10% fetal calf serum, and cultured in a 5% CO2 humidified incubator at 37° C. for 48 hours. Their viability, estimated by staining with 0.17% Trypan blue, was compared with that of control cells cultured in the identical medium without the compounds.
# [2] = Test for water solubility; format: physicochemical; details: water
# Excerpt: 3. Test for water solubility
# A standard plot of UV absorbance(220 nm) vs. concentration was made; and employed to determine water-solubility.
# The mixture was then passed through a 0.45 micron disposable membrane filter before dilution and UV measurement.
compound,measurement,setting,value
"NC[C@H]1OC2(CCCCC2)O[C@@H]1CN.O=C1C[O][Pt][O]1 [Example 4, (glycolato-O,O'){cyclohexanespiro-2'-[(4'R,5'R)-4',5'-bis(aminomethyl)-1',3'-dioxolane]}-platinum(II)]",T/C (%),murine leukemia L1210; 3.1 mg/kg i.p.,102%
same,T/C (%),murine leukemia L1210; 6.2 mg/kg i.p.,146%
same,T/C (%),murine leukemia L1210; 12.5 mg/kg i.p.,233%
same,T/C (%),murine leukemia L1210; 25 mg/kg i.p.,231%
same,T/C (%),murine leukemia L1210; 50 mg/kg i.p.,toxic
same,Number of dead mice for 7 days,"ICR mice; female, 25.0 mg/kg i.p.",0/6
same,"Number of dead mice, 1st day","ICR mice; female, 25.0 mg/kg i.p.",0/6
same,Number of dead mice for 7 days,"ICR mice; female, 32.5 mg/kg i.p.",0/6
same,"Number of dead mice, 1st day","ICR mice; female, 32.5 mg/kg i.p.",0/6
same,Number of dead mice for 7 days,"ICR mice; female, 42.3 mg/kg i.p.",0/6
same,"Number of dead mice, 1st day","ICR mice; female, 42.3 mg/kg i.p.",0/6
same,Number of dead mice for 7 days,"ICR mice; female, 55.0 mg/kg i.p.",2/6
same,"Number of dead mice, 1st day","ICR mice; female, 55.0 mg/kg i.p.",0/6
same,"Number of dead mice, 3rd day","ICR mice; female, 55.0 mg/kg i.p.",1/6
same,"Number of dead mice, 4th day","ICR mice; female, 55.0 mg/kg i.p.",1/5
same,Lethality,"ICR mice; female, 55.0 mg/kg i.p.",33.3
same,Number of dead mice for 7 days,"ICR mice; female, 71.4 mg/kg i.p.",4/6
same,"Number of dead mice, 1st day","ICR mice; female, 71.4 mg/kg i.p.",0/6
same,"Number of dead mice, 2nd day","ICR mice; female, 71.4 mg/kg i.p.",2/6
same,"Number of dead mice, 3rd day","ICR mice; female, 71.4 mg/kg i.p.",1/4
same,"Number of dead mice, 4th day","ICR mice; female, 71.4 mg/kg i.p.",1/3
same,Lethality,"ICR mice; female, 71.4 mg/kg i.p.",66.7
same,Number of dead mice for 7 days,"ICR mice; male, 25.0 mg/kg i.p.",0/6
same,"Number of dead mice, 1st day","ICR mice; male, 25.0 mg/kg i.p.",0/6
same,Number of dead mice for 7 days,"ICR mice; male, 32.5 mg/kg i.p.",0/6
same,"Number of dead mice, 1st day","ICR mice; male, 32.5 mg/kg i.p.",0/6
same,Number of dead mice for 7 days,"ICR mice; male, 42.3 mg/kg i.p.",0/6
same,"Number of dead mice, 1st day","ICR mice; male, 42.3 mg/kg i.p.",0/6
same,Number of dead mice for 7 days,"ICR mice; male, 55.0 mg/kg i.p.",3/6
same,"Number of dead mice, 1st day","ICR mice; male, 55.0 mg/kg i.p.",0/6
same,"Number of dead mice, 2nd day","ICR mice; male, 55.0 mg/kg i.p.",2/6
same,"Number of dead mice, 3rd day","ICR mice; male, 55.0 mg/kg i.p.",1/4
same,Lethality,"ICR mice; male, 55.0 mg/kg i.p.",50.0
same,Number of dead mice for 7 days,"ICR mice; male, 71.4 mg/kg i.p.",4/6
same,"Number of dead mice, 1st day","ICR mice; male, 71.4 mg/kg i.p.",0/6
same,"Number of dead mice, 2nd day","ICR mice; male, 71.4 mg/kg i.p.",3/6
same,"Number of dead mice, 3rd day","ICR mice; male, 71.4 mg/kg i.p.",1/3
same,Lethality,"ICR mice; male, 71.4 mg/kg i.p.",66.7
same,IC50 (concentration required for 50% inhibition of growth),[1],0.08 mg/L
same,Solubility in water,[2],2.9 mg/mL
"CC(C)C1O[C@H](CN)[C@@H](CN)O1.O=C1C[O][Pt][O]1 [Example 7, (glycolato-O,O')[(4R,5R)-4,5-bis(aminomethyl)-2-isopropyl-1,3-dioxolane]platinum(II)]",T/C (%),murine leukemia L1210; 3.1 mg/kg i.p.,155%
same,T/C (%),murine leukemia L1210; 6.2 mg/kg i.p.,166%
same,T/C (%),murine leukemia L1210; 12.5 mg/kg i.p.,191%
same,T/C (%),murine leukemia L1210; 25 mg/kg i.p.,toxic
same,T/C (%),murine leukemia L1210; 50 mg/kg i.p.,toxic
same,Number of dead mice for 7 days,"ICR mice; female, 25.0 mg/kg i.p.",0/6
same,"Number of dead mice, 1st day","ICR mice; female, 25.0 mg/kg i.p.",0/6
same,Number of dead mice for 7 days,"ICR mice; female, 32.5 mg/kg i.p.",0/6
same,"Number of dead mice, 1st day","ICR mice; female, 32.5 mg/kg i.p.",0/6
same,Number of dead mice for 7 days,"ICR mice; female, 42.3 mg/kg i.p.",1/6
same,"Number of dead mice, 1st day","ICR mice; female, 42.3 mg/kg i.p.",0/6
same,"Number of dead mice, 3rd day","ICR mice; female, 42.3 mg/kg i.p.",1/6
same,Lethality,"ICR mice; female, 42.3 mg/kg i.p.",16.7
same,Number of dead mice for 7 days,"ICR mice; female, 55.0 mg/kg i.p.",2/6
same,"Number of dead mice, 1st day","ICR mice; female, 55.0 mg/kg i.p.",0/6
same,"Number of dead mice, 3rd day","ICR mice; female, 55.0 mg/kg i.p.",1/6
same,"Number of dead mice, 4th day","ICR mice; female, 55.0 mg/kg i.p.",1/5
same,Lethality,"ICR mice; female, 55.0 mg/kg i.p.",33.3
same,Number of dead mice for 7 days,"ICR mice; female, 71.4 mg/kg i.p.",4/6
same,"Number of dead mice, 1st day","ICR mice; female, 71.4 mg/kg i.p.",0/6
same,"Number of dead mice, 3rd day","ICR mice; female, 71.4 mg/kg i.p.",3/6
same,"Number of dead mice, 4th day","ICR mice; female, 71.4 mg/kg i.p.",1/3
same,Lethality,"ICR mice; female, 71.4 mg/kg i.p.",66.7
same,Number of dead mice for 7 days,"ICR mice; male, 25.0 mg/kg i.p.",0/6
same,"Number of dead mice, 1st day","ICR mice; male, 25.0 mg/kg i.p.",0/6
same,Number of dead mice for 7 days,"ICR mice; male, 32.5 mg/kg i.p.",0/6
same,"Number of dead mice, 1st day","ICR mice; male, 32.5 mg/kg i.p.",0/6
same,Number of dead mice for 7 days,"ICR mice; male, 42.3 mg/kg i.p.",2/6
same,"Number of dead mice, 1st day","ICR mice; male, 42.3 mg/kg i.p.",0/6
same,"Number of dead mice, 3rd day","ICR mice; male, 42.3 mg/kg i.p.",1/6
same,"Number of dead mice, 5th day","ICR mice; male, 42.3 mg/kg i.p.",1/5
same,Lethality,"ICR mice; male, 42.3 mg/kg i.p.",33.3
same,Number of dead mice for 7 days,"ICR mice; male, 55.0 mg/kg i.p.",2/6
same,"Number of dead mice, 1st day","ICR mice; male, 55.0 mg/kg i.p.",0/6
same,"Number of dead mice, 3rd day","ICR mice; male, 55.0 mg/kg i.p.",1/6
same,"Number of dead mice, 4th day","ICR mice; male, 55.0 mg/kg i.p.",1/5
same,Lethality,"ICR mice; male, 55.0 mg/kg i.p.",33.3
same,Number of dead mice for 7 days,"ICR mice; male, 71.4 mg/kg i.p.",4/6
same,"Number of dead mice, 1st day","ICR mice; male, 71.4 mg/kg i.p.",0/6
same,"Number of dead mice, 3rd day","ICR mice; male, 71.4 mg/kg i.p.",2/6
same,"Number of dead mice, 4th day","ICR mice; male, 71.4 mg/kg i.p.",2/4
same,Lethality,"ICR mice; male, 71.4 mg/kg i.p.",66.7
same,IC50 (concentration required for 50% inhibition of growth),[1],0.06 mg/L
same,Solubility in water,[2],> 30 mg/mL
